From ChEMBL document CHEMBL3865791, “Discovery and development of natural product oridonin-inspired anticancer agents” (Eur J Med Chem, 2016)

Legend:
[1] = Antiproliferative activity against human K562 cells after 72 hrs by MTT assay; type: functional, cell-based; conditions: K562, 72 h
[2] = Antiproliferative activity against human […] cells after 72 hrs by MTT assay; type: functional, cell-based
[3] = Antiproliferative activity against human MGC803 cells after 72 hrs by MTT assay; type: functional, cell-based; conditions: MGC-803, 72 h
[4] = Antiproliferative activity against human CaEs17 cells after 72 hrs by MTT assay; type: functional, cell-based; conditions: CaEs17, 72 h
[5] = Toxicity in iv dosed Sprague-Dawley rat administered qd for 28 days; type: organism-based; conditions: in vivo
[6] = Antiproliferative activity against human MCF7 cells; type: functional, cell-based
[7] = Antiproliferative activity against human MDA-MB-231 cells; type: functional, cell-based
[8] = Cytotoxicity against human K562 cells by MTT assay; type: functional, cell-based
[9] = tested on: MDA-MB-231; assay: Potency index, ratio of Oridonin EC50 to compound EC50 for human MDA-MB-231; type: functional
[10] = Antiproliferative activity against human […] cells after 24 hrs by MTT assay; type: functional, cell-based
[11] = Antitumor activity against H22 cells xenografted in ICR mouse assessed as tumor growth inhibition at 20 mg/kg/day, ip administered for 4 consecutive days relative to control; type: functional; conditions: read-out: TGI
[12] = Antitumor activity against human MGC803 cells xenografted in ICR mouse assessed as tumor growth inhibition at 40 mg/kg/day, ip for 25 consecutive days relative to control; type: functional; conditions: MGC-803, ip, read-out: TGI
[13] = Antiproliferative activity against human MDA-MB-231 cells measured after 48 hrs by MTT assay; type: functional, cell-based; conditions: MDA-MB-231, 48 h
[14] = Antiproliferative activity against human ER-positive MCF7 cells measured after 48 hrs by MTT assay; type: functional, cell-based; conditions: MCF7, 48 h
[15] = Anticancer activity against AML cells isolated from AML-ETO9a leukemia mouse measured after 48 hrs by CCK8 assay; type: functional, cell-based
[16] = Anticancer activity against human Kasumi-1 cells measured after 48 hrs by CCK8 assay; type: functional, cell-based; conditions: Kasumi 1, 48 h
[17] = Anticancer activity against human K562 cells measured after 24 hrs by MTT assay; type: functional, cell-based; conditions: K562, 24 h
[18] = Anticancer activity against human K562/ADR cells measured after 24 hrs by MTT assay; type: functional, cell-based
[19] = Anticancer activity against human MT1 cells measured after 48 hrs by trypan blue assay; type: functional, cell-based; conditions: MT1, 48 h
[20] = Anticancer activity against human MT2 cells measured after 48 hrs by trypan blue assay; type: functional, cell-based; conditions: MT2, 48 h
[21] = Anticancer activity against human U266 cells measured after 48 hrs by trypan blue assay; type: functional, cell-based; conditions: U-266, 48 h
[22] = Anticancer activity against human RPMI8226 cells measured after 48 hrs by trypan blue assay; type: functional, cell-based; conditions: RPMI-8226, 48 h
[23] = Anticancer activity against human Jurkat cells measured after 48 hrs by trypan blue assay; type: functional, cell-based
[24] = Anticancer activity against human Hep2 cells measured after 24 hrs by MTT assay; type: functional, cell-based; conditions: HEp-2, 24 h
[25] = Anticancer activity against human LX2 cells measured after 48 hrs by alamar blue assay; type: functional, cell-based; conditions: LX-2, 48 h
[26] = Anticancer activity against rat HSC-T6 cells measured after 48 hrs by alamar blue assay; type: functional, cell-based; conditions: HSC-T6, 48 h
[27] = Anticancer activity against human PC3 cells measured after 48 hrs by CCK8 assay; type: functional, cell-based; conditions: PC-3, 48 h
[28] = Anticancer activity against human LNCAP cells measured after 48 hrs by CCK8 assay; type: functional, cell-based
[29] = Anticancer activity against human SW480 cells measured after 24 hrs by MTT assay; type: functional, cell-based; conditions: SW480, 24 h
[30] = Anticancer activity against human SW620 cells measured after 24 hrs by MTT assay; type: functional, cell-based; conditions: SW-620, 24 h
[31] = Antiproliferative activity against human ER-triple negative MDA-MB-468 cells measured after 48 hrs by MTT assay; type: functional, cell-based; conditions: MDA-MB-468, 48 h
[32] = Antiproliferative activity against human MCF7/ADR cells measured after 48 hrs by MTT assay; type: functional, cell-based; conditions: NCI/ADR-RES
[33] = Oral bioavailability in Wistar rat at 20 mg/kg administered as single dose through gavage measured after 48 hrs by HPLC/ESI-MS analysis; type: ADME, organism-based; conditions: in vivo
[34] = Oral bioavailability in Wistar rat at 10 mg/kg, ip administered as single dose measured after 36 hrs by HPLC/ESI-MS analysis; type: ADME, organism-based; conditions: in vivo, intraperitoneal

C=C1C(=O)[C@@]23C(=O)O[C@H]4CCC(C)(C)[C@H]5[C@H](O)OC[C@@]45[C@@H]2CC[C@@H]1[C@H]3OC(C)=O
EC50 [1]: 1110 nM
EC50 [2]: 1970 nM
EC50 [3]: 1990 nM
EC50 [4]: 1590 nM

C=C1C(=O)[C@@]23C(=O)O[C@H]4CCC(C)(C)[C@H]5[C@H](O)OC[C@@]45[C@@H]2CC[C@@H]1[C@H]3OC(=O)c1ccccc1
EC50 [1]: 210 nM
EC50 [2]: 1420 nM
EC50 [3]: 930 nM
EC50 [4]: 540 nM

C=C1C(=O)[C@@]23C(=O)O[C@H]4CCC(C)(C)[C@H]5[C@H](O)OC[C@@]45[C@@H]2CC[C@@H]1[C@H]3OC(=O)c1ccc(C)cc1
EC50 [1]: 140 nM
EC50 [2]: 1010 nM
EC50 [3]: 610 nM
EC50 [4]: 450 nM

C=C1C(=O)[C@@]23C(=O)O[C@H]4CCC(C)(C)[C@H]5[C@H](O)OC[C@@]45[C@@H]2CC[C@@H]1[C@H]3OC(=O)c1ccccc1Cl
EC50 [1]: 220 nM
EC50 [2]: 850 nM
EC50 [3]: 800 nM
EC50 [4]: 600 nM

C=C1C(=O)[C@@]23C(=O)O[C@H]4CCC(C)(C)[C@H]5C(=O)OC[C@@]45[C@@H]2CC[C@@H]1[C@H]3OC(C)=O
EC50 [1]: 350 nM
EC50 [2]: 1370 nM
EC50 [3]: 1270 nM
EC50 [4]: 690 nM

C=C1C(=O)[C@]23[C@H](OC(=O)[C@H](C)N)[C@H]1CC[C@H]2[C@@]12CO[C@@]3(O)[C@@H](O)[C@@H]1C(C)(C)CC[C@@H]2O.O=C(O)C(F)(F)F
NOAEL at 672 h [5]: 40 mg/kg

C=C1C(=O)[C@]23[C@H](O)[C@H]1CC[C@H]2[C@@]12CO[C@@]3(O)[C@@H](O)[C@@H]1C(C)(C)Cc1sc(NC)nc12
EC50 [6]: 1300 nM
EC50 [7]: 2100 nM

C=C1C(=O)[C@]23[C@H](O)[C@H]1CC[C@H]2[C@@]12CO[C@@]3(O)[C@@H](O)[C@@H]1C(C)(C)Cc1sc(NCCCC)nc12
EC50 [6]: 600 nM
EC50 [7]: 1100 nM

CC(=O)[C@@H]1CC[C@H]2[C@@]34CO[C@@]5(O)[C@@H](OC(=O)[C@]25[C@@H]1O)[C@@H]3C(C)(C)CC[C@@H]4O
EC50 [8]: 18500 nM

C=C1C(=O)[C@]23[C@H](O)[C@H]1CC[C@H]2[C@@]12CO[C@@]3(O)[C@@H](O)[C@@H]1C(C)(C)Cc1sc(N3CCCCCC3)nc12
EC50 [6]: 1200 nM
EC50 [7]: 6800 nM

C=CCNc1nc2c(s1)CC(C)(C)[C@H]1[C@H](O)[C@]3(O)OC[C@@]21[C@@H]1CC[C@H]2C(=C)C(=O)[C@]13[C@@H]2O
Ratio EC50 [9]: 147
EC50 [6]: 200 nM
EC50 [7]: 200 nM

C=C1C(=O)[C@]23[C@H](OC(=O)CC(CCCCCCCCCCCC)C(=O)O)[C@H]1CC[C@H]2[C@@]12CO[C@@]3(O)[C@@H](O)[C@@H]1C(C)(C)CC[C@@H]2O (some centres undefined)
EC50 [10]: 2060 nM
inhibition in vivo at 20 mg/kg/day [11]: 63.7%

C=C1C(=O)[C@]23[C@H](O)[C@H]1CC[C@H]2[C@@]12CO[C@@]3(O)[C@@H](O)[C@@H]1C(C)(C)Cc1sc(NC(=N)N)nc12
EC50 [6]: 3400 nM
EC50 [7]: > 10000 nM

C=C1C(=O)[C@@]23C(=O)O[C@H]4CCC(C)(C)[C@H]5C(=O)OC[C@@]45[C@@H]2CC[C@@H]1[C@H]3OC(=O)c1ccccc1
EC50 [1]: 330 nM
EC50 [2]: 790 nM
EC50 [3]: 460 nM
EC50 [4]: 810 nM

C=C1C(=O)[C@]23[C@H](O)[C@H]1CC[C@H]2[C@@]12CO[C@@]3(O)[C@@H](O)[C@@H]1C(C)(C)Cc1sc(NCCN3CCCCC3)nc12
EC50 [6]: 1000 nM
EC50 [7]: 1800 nM

C=C1C(=O)[C@]23[C@H](O)[C@H]1CC[C@H]2[C@@]12CO[C@@]3(O)[C@@H](O)[C@@H]1C(C)(C)Cc1sc(N)nc12
EC50 [6]: 1000 nM
EC50 [7]: 3200 nM

C=C1C(=O)[C@@]23C(=O)O[C@H]4CCC(C)(C)[C@H]5C(=O)OC[C@@]45[C@@H]2CC[C@@H]1[C@H]3OC(=O)c1ccc(Cl)cc1
EC50 [1]: 140 nM
EC50 [2]: 890 nM
EC50 [3]: 340 nM
EC50 [4]: 340 nM

C=C1C(=O)[C@@]23C(=O)O[C@H]4CCC(C)(C)[C@H]5C(=O)OC[C@@]45[C@@H]2CC[C@@H]1[C@H]3OC(=O)c1cccnc1
EC50 [1]: 1740 nM
EC50 [2]: 710 nM
EC50 [3]: 1160 nM
EC50 [4]: 3540 nM
inhibition in vivo at 40 mg/kg/day [12]: 64.8%

C=C1C(=O)[C@@]23[C@@H]4OC(C)(C)O[C@@]25OC[C@]2([C@@H](n6cc(-c7ccccc7)nn6)C=CC(C)(C)[C@H]2[C@@H]5O)[C@@H]3CC[C@@H]14
Ratio EC50 [9]: 61
EC50 [13]: 480 nM

C=C1C(=O)[C@]23[C@H](O)[C@H]1CC[C@H]2[C@@]12CO[C@@]3(O)[C@@H](O)[C@@H]1C(C)(C)Cc1sc(NC(C)=O)nc12
EC50 [6]: 2000 nM
EC50 [7]: 6800 nM

C=C1C(=O)[C@@]23C(=O)O[C@H]4CCC(C)(C)[C@H]5C(=O)OC[C@@]45[C@@H]2CC[C@@H]1[C@H]3OC(=O)c1ccc(C)cc1
EC50 [1]: 520 nM
EC50 [2]: 1580 nM
EC50 [3]: 1540 nM
EC50 [4]: 1780 nM

C=C1C(=O)[C@]23[C@H](O)[C@H]1CC[C@H]2[C@@]12CO[C@@]3(O)[C@@H](O)[C@@H]1C(C)(C)Cc1sc(N(C)C)nc12
EC50 [6]: 800 nM
EC50 [7]: 300 nM

C=C1C(=O)[C@@]23C(=O)O[C@H]4CCC(C)(C)[C@H]5C(=O)OC[C@@]45[C@@H]2CC[C@@H]1[C@H]3OC(=O)c1ccccc1Cl
EC50 [1]: 260 nM
EC50 [2]: 720 nM
EC50 [3]: 820 nM
EC50 [4]: 280 nM

C=C1C(=O)[C@]23[C@H](O)[C@H]1CC[C@H]2[C@@]12CO[C@@]3(O)[C@@H](O)[C@@H]1C(C)(C)Cc1sc(NC3CCCCC3)nc12
EC50 [6]: 900 nM
EC50 [7]: 800 nM

C=C1C(=O)[C@]23[C@H](O)[C@H]1CC[C@H]2[C@@]12CO[C@]3(O)[C@@H](O)[C@@H]1C(C)(C)CC[C@@H]2O [ORIDONIN]
EC50 [14]: 4400 nM
EC50 [15]: 2500 nM
EC50 [16]: 1330 nM
EC50 [17]: 14600 nM
EC50 [18]: < 40000 nM
EC50 [19]: 1200 to 2700 nM
EC50 [20]: 1200 to 2700 nM
EC50 [21]: 1200 to 2700 nM
EC50 [22]: 1200 to 2700 nM
EC50 [23]: 1200 to 2700 nM
EC50 [24]: 37100 nM
EC50 [25]: 7000 nM
EC50 [26]: 7000 nM
EC50 [27]: 25000 nM
EC50 [28]: 25000 nM
EC50 [29]: 20800 to 37000 nM
EC50 [30]: 20800 to 37000 nM
EC50 [10]: 29800 nM
EC50 [1]: 4760 nM
EC50 [2]: 7480 nM
inhibition in vivo at 20 mg/kg/day [11]: 42.7%
EC50 [6]: 6600 nM
EC50 [7]: 29400 nM
EC50 [13]: 28000 to 29400 nM
EC50 [31]: 5300 nM
EC50 [32]: 34800 nM
EC50 [3]: 5690 nM
EC50 [4]: 11000 nM
inhibition in vivo at 40 mg/kg/day [12]: 37.3%
bioavailability [33]: 4.3%
bioavailability [34]: 12.6%
